According to PubChem BioAssay (NCI):
Where “and” joins values, the source holds several entries; their conditions need not be identical. Identical values can stand only once.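 Five concentrations, 48 hours, 96-well plates. GI50 marks 50% less growth. TGI: concentration producing complete growth inhibition.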

Tests used:
Assay in all cases: NCI-60 cell line screen, 48 h
CAKI-1 renal = system: CAKI-1 renal
HOP-92 NSCLC = system: HOP-92 NSCLC
IGROV1 ovarian = system: IGROV1 ovarian
LOX IMVI melanoma = system: LOX IMVI melanoma
MCF7 breast = system: MCF7 breast
SK-MEL-2 melanoma = system: SK-MEL-2 melanoma
SK-MEL-28 melanoma = system: SK-MEL-28 melanoma
SR leukemia = system: SR leukemia
UACC-62 melanoma = system: UACC-62 melanoma
UO-31 renal = system: UO-31 renal

Structure (SMILES)	GI50 (CAKI-1 renal)	TGI (CAKI-1 renal)	GI50 (HOP-92 NSCLC)	TGI (HOP-92 NSCLC)	GI50 (IGROV1 ovarian)	TGI (IGROV1 ovarian)	GI50 (LOX IMVI melanoma)	TGI (LOX IMVI melanoma)	GI50 (MCF7 breast)	TGI (MCF7 breast)	GI50 (SK-MEL-2 melanoma)	TGI (SK-MEL-2 melanoma)	GI50 (SK-MEL-28 melanoma)	TGI (SK-MEL-28 melanoma)	GI50 (SR leukemia)	TGI (SR leukemia)	GI50 (UACC-62 melanoma)	TGI (UACC-62 melanoma)	GI50 (UO-31 renal)	TGI (UO-31 renal)
CCCCCCCCCCCCCCCCC(=O)O.CCCCCCCCCCCCCCCCCC(=O)O.CCCCCCCCCCCCCCCCCC(=O)O.CCCCCCCCCCCCCCCCCC(=O)O.CCCCCCCCCCCCCCCCCC(=O)O.CO[CH-]OC12COC1CC(O)C1(C)C(O)C(OC(C)O)C3=C(C)C(OC(=O)C(O)C([NH-])c4ccccc4)CC(O)(C(OC(=O)c4ccccc4)C21)C3(C)C.[Cu+].[Zn].[Zn].[Zn].[Zn].[Zn] (configuration not stated)	51.3 nM	> 25000 nM	858 nM	12800 nM	7.11 nM	4390 nM	3.81 nM	7050 nM	2.62 nM	3830 nM	< 11.8 nM	11200 nM	4680 nM	23700 nM	4.14 nM	11500 nM	11.8 nM	5470 nM	487 nM	> 14500 nM
CN(Cc1cc(Cl)cc(Cl)c1O)Cc1c(O)ccc2ccccc12	–	33800 nM	–	36500 nM	–	33900 nM	–	32800 nM	–	33200 nM	–	35800 nM	–	37300 nM	–	68200 nM	–	29300 nM	–	34700 nM
Cc1c(O)c2c(c(O)c1Br)C(=O)C=CC2=O	160 nM	894 nM and 382 nM	270 nM	1480 nM and 887 nM	–	3050 nM and 3560 nM	215 nM	1540 nM and 703 nM	410 nM	399 nM and 1540 nM	1930 nM	4450 nM	1590 nM	2330 nM and 3070 nM	–	730 nM	1440 nM	2100 nM and 3210 nM	1380 nM	1230 nM and 2950 nM
COc1cc2c(cc1Nc1nc(Nc3cccc(F)c3C(N)=O)c3cc[nH]c3n1)N(C(=O)CN1CCN(C(C)C)CC1)CC2	4940 nM	11900 nM	374 nM	3130 nM	4500 nM	10200 nM	3490 nM	7030 nM	683 nM	4320 nM	3300 nM	6950 nM	3700 nM	7020 nM	1190 nM	15200 nM	3900 nM	7740 nM	3920 nM	9740 nM
O=C(Nc1n[nH]c2nnc(-c3cccnc3)cc12)C1CC1	3870 nM	> 25000 nM	> 25000 nM	> 25000 nM	> 11700 nM	> 25000 nM	6990 nM	> 25000 nM	1070 nM	> 25000 nM	21800 nM	> 25000 nM	> 16900 nM	> 25000 nM	6230 nM	> 25000 nM	7370 nM	> 25000 nM	1650 nM	> 20300 nM
CCCCCCCCC(=O)OCC(CS[As](C)C)OC(=O)CCCCCCCC (configuration not stated)	220 nM	1120 nM	1930 nM	18300 nM	5100 nM	> 48400 nM	1090 nM	5700 nM	477 nM	8200 nM	13200 nM	58900 nM	1120 nM	16200 nM	1030 nM	5410 nM	904 nM	15000 nM	3460 nM	> 39900 nM
COc1cc(C(=O)N/N=C/c2ccc(N(C)C)cc2)cc(OC)c1OC	3700 nM	> 100000 nM	143 nM	2280 nM	1150 nM	> 100000 nM	736 nM	> 100000 nM	340 nM	> 100000 nM	1150 nM	> 81300 nM	622 nM	> 100000 nM	287 nM	–	417 nM	> 100000 nM	656 nM	> 100000 nM
NCC1OC(OC2C(CO)OC(OC3C(O)C(N)CC(N)C3OC3OC(CO)C(O)CC3N)C2O)C(N)C(O)C1OC1OC(CO)C(O)C(O)C1O (configuration not stated)	> 50 µg/mL	> 50 µg/mL	14.7 µg/mL	> 50 µg/mL	> 50 µg/mL	> 50 µg/mL	> 50 µg/mL	> 50 µg/mL	> 50 µg/mL	> 50 µg/mL	> 50 µg/mL	> 50 µg/mL	> 50 µg/mL	> 50 µg/mL	> 50 µg/mL	> 50 µg/mL	> 50 µg/mL	> 50 µg/mL	> 50 µg/mL	> 50 µg/mL
CCN(CC)C1CCC(Nc2c(C(C)=O)cnc3ccc(-c4ccc(O)c(Cl)c4)cc23)CC1 (configuration not stated)	376 nM	10800 nM	227 nM	4270 nM	253 nM	5470 nM	336 nM	1580 nM	229 nM	1420 nM	4150 nM	28200 nM	1830 nM	16200 nM	195 nM	720 nM	3470 nM	25400 nM	425 nM	> 36800 nM
O=C1c2ccccc2-c2c1c1ccccc1c(=O)n2CCCNCCCCNCCCN1C(=O)c2ccccc2C2C(=O)c3ccccc3C21 (configuration not stated)	447 nM	1130 nM	8.29 nM	42.8 nM	988 nM	10700 nM	27.8 nM	253 nM	36.1 nM	1900 nM	1040 nM	3820 nM	1190 nM	6760 nM	< 5 nM	5.59 nM	666 nM	3250 nM	691 nM	1850 nM
Clc1ccc(-c2cc(-c3ccccc3)nc(NCCNc3ccnc4cc(Cl)ccc34)n2)cc1	1470 nM	2930 nM	1320 nM	2800 nM	1600 nM	3270 nM	1890 nM	3700 nM	1720 nM	3730 nM	1730 nM	3230 nM	1700 nM	3190 nM	1590 nM	4560 nM	1840 nM	3370 nM	1380 nM	2860 nM
